Measured values from patent US20250263395A1, “COMPOUNDS THAT MEDIATE PROTEIN DEGRADATION AND METHODS OF USE THEREOF” (Monte Rosa Therapeutics AG, priority 2022, published 2025).

Experiments:
CDK2 = CDK2 (Homo sapiens (Human), UniProt P24941); experiment: CDK2 NanoBiT assay (HiBiT-tagged CDK2 degradation); assay type: cell-based; settings: C-terminal HiBiT tag on CDK2, LgBiT, 24 hours
Protocol: Example 145. NanoBiT Assay
A HEK293 clonal line with a CRISPR knock-in C-terminal HiBiT tag on CDK2 and stably expressing LgBiT protein was obtained from Promega (Madison, WI). Cells were plated at 5000 cells per well using Multiflo (BioTek) in 384-well white solid bottom plates (Corning, 3570BC) in 25 ul volume in DMEM media (DMEM, high glucose, HEPES, no phenol red (ThermoFisher Scientific, 21063029)) containing 10% FBS (Corning, 35-075-CV), 1% Peniciliin/Streptomycin ((ThermoFisher Scientific, 15140-122), and 1% Endurazine (Nano-Glo Endurazine Live Cell Substrate (Promega, N2571)). Cells were incubated for 16 hours at 37 C, 5% CO2. 75 nL of a compound at 30 μM were dosed into the plate using an Echo® 650 liquid handler (Labcyte). Cells were incubated at 37° C., 5% CO2 for 24 hours and then signal was read on a Pherastar FSX using “LUM plus” optic module.
Analysis was performed in Scinamic (Scinamic, Cambridge, MA). Luminescence response (R) was calculated by the formula: response=100*(S−N)/(P−N) where S is the signal of the well, N and P the mean negative and positive control values respectively of the same plate. The luminescence response was then fitted in Scinamic using a 3-parameter agonist logistic fit (hillslope=1, EC50>0, top/bottom unconstrained).

CRBN-DDB1 = CRBN-DDB1 (Homo sapiens (Human), UniProt Q96SW2); experiment: CRBN HTRF assay (Cy5-Thalidomide probe displacement); assay type: binding; settings: CRBN-DDB1 2.5 nM, Cy5-Thalidomide 100 nM, 30 min; Ki from geometric mean IC50 by Cheng-Prusoff
Sequence of CRBN-DDB1 (Q96SW2 whole entry): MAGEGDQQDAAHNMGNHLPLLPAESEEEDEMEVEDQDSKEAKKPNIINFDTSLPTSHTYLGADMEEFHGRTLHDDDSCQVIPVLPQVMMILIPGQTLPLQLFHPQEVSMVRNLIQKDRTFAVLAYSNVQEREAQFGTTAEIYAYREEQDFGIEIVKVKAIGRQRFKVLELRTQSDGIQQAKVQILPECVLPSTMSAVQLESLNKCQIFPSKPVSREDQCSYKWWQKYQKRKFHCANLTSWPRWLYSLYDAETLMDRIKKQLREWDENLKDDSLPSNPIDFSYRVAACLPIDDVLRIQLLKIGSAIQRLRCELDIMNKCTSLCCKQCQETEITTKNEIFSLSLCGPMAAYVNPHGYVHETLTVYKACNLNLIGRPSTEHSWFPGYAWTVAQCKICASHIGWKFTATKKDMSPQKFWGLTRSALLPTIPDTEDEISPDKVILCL
Sequence of CRBN-DDB1 (Q16531 whole entry partner): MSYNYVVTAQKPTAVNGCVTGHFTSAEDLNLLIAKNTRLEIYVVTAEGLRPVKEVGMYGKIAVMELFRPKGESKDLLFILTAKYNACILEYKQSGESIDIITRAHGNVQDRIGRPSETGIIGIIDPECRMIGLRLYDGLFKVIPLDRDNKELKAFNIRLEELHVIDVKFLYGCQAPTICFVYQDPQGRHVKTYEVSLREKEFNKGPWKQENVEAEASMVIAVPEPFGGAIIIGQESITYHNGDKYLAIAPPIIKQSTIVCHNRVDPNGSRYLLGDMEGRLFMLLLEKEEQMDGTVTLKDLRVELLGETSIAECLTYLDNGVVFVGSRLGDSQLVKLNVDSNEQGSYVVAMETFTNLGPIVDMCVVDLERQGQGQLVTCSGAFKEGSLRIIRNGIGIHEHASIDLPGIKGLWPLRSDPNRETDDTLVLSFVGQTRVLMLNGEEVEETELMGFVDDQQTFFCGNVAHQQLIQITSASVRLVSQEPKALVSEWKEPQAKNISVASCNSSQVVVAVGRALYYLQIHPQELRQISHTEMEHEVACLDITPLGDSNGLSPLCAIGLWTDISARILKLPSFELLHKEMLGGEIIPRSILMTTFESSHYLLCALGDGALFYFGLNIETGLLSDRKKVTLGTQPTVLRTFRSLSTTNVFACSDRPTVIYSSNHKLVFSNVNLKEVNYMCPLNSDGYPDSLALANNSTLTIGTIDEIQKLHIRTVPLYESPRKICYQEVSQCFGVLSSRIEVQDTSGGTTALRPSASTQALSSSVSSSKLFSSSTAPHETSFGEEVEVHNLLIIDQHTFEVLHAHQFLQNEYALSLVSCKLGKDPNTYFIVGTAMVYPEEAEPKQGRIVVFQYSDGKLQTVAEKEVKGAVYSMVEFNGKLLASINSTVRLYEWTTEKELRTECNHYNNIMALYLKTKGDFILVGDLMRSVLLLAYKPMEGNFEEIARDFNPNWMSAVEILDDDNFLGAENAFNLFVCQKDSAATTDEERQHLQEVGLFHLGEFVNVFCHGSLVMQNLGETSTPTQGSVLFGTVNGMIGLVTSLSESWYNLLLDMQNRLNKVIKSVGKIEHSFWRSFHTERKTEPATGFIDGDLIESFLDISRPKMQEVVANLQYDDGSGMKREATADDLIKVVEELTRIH
Protocol: Compound activity was monitored in a Homogenous Time-Resolved Fluorescence (HTRF) assay using 1-[5-({2-[2-(2-{[2-(2,6-dioxopiperidin-3-yl)-1,3-dioxo-2,3-dihydro-1H-isoindol-4-yl]oxy}acetamido)ethoxy]ethyl}carbamoyl)pentyl]-3,3-dimethyl-2-[(1E,3E)-5-[(2E)-1,3,3-trimethyl-5-sulfo-2,3-dihydro-1H-indol-2-ylidene]penta-1,3-dien-1-yl]-3H-indol-1-ium-5-sulfonate as a fluorescent probe. Biochemical assays were conducted in Greiner white 384 well HiBase plates (Cat. No 784075-25) in 10 μL total volume. A one pot detection solution of CRBN-DDB1 (2.5 nM), Anti-His Terbium Cryptate Gold (1×, PerkinElmer Cat. #: 61HI2TLB), and Cy5-Thalidomide (100 nM, Tenova Cat.: T52461) was prepared in 20 mM HEPES, 20 mM NaCl, 0.2 mM TCEP, 0.2 mM EDTA, and 0.005% Tween20 was dispensed to each assay plate. Compounds were stored in dry, ambient temperatures at 10 mM. A 10-point, 1:3 dilution series was prepared from 10 mM stock concentrations in Echo-compatible LDV plates. 10 nL of each compound dilution series was dispensed into assays wells using an Echo 650 (Labcyte inc. USA). 10 nL of 10 mM Lenalidomide was transferred into the active-control wells for the assay and 10 nL of DMSO was transferred into the neutral-control wells. The assay was then allowed to incubate for 30 min at ambient temperature after transferring compound. Plate measurements were taken on a Pherastar FSX (BMG Labtech, Germany) using the HTRF Red filter (Ex. 337 nm, em1: 620 nm, em2: 665 nm) (Flashes: 50, Integration time: 60-400 us, Z-height: 10 mm, Ratio-multiplier: 10,000). The HTRF signal was then subsequently normalized to the neutral and active controls. Analysis and IC50 values were derived using KNIME analytics (KNIME Zurich) transformation and fitting within Collaborative Drug Discovery (Collaborative Drug Discovery USA). Ki was derived from the geometric mean of the IC50 values using the Cheng-Prustoff transformation.

| SMILES | Dmax (CDK2; HEK293, HEK293 clonal line) [%] | Ki (CRBN-DDB1) [µM] | Dmax (CDK2; HEK293 clonal line) [%] |
| --- | --- | --- | --- |
| O=C1CCC(c2c(F)cc(N3CC(NC(=O)OC4CN(S(=O)(=O)C5CC5)C4)C3)cc2F)C(=O)N1 (centres unmarked) [Compound 42, 1-(cyclopropylsulfonyl)azetidin-3-yl (1-(4-(2,6-dioxopiperidin-3-yl)-3,5-difluorophenyl)azetidin-3-yl)carbamate] | 10 to 50 | ≤ 0.1 |  |
| CN(CC1CC1)C(=O)N1CC(OC(=O)NC2CN(c3cc(F)c(C4CCC(=O)NC4=O)c(F)c3)C2)C1 (centres unmarked) [Compound 43, 1-((cyclopropylmethyl)(methyl)carbamoyl)azetidin-3-yl (1-(4-(2,6-dioxopiperidin-3-yl)-3,5-difluorophenyl)azetidin-3-yl)carbamate] | 50 to 80 | ≤ 0.1 |  |
| COc1c(N2CC(NC(=O)OCC3CC4(CCC4)C3)C2)ccc(C2CCC(=O)NC2=O)c1F (centres unmarked) [Compound 44, spiro[3.3]heptan-2-ylmethyl (1-(4-(2,6-dioxopiperidin-3-yl)-3-fluoro-2-methoxyphenyl)azetidin-3-yl)carbamate] | > 80 | 0.1 to 1 |  |
| CN(C)C(=O)N1CC(OC(=O)NC2CN(c3cc(F)c(C4CCC(=O)NC4=O)c(F)c3)C2)C1 (centres unmarked) [Compound 45, 1-(dimethylcarbamoyl)azetidin-3-yl (1-(4-(2,6-dioxopiperidin-3-yl)-3,5-difluorophenyl)azetidin-3-yl)carbamate] | 10 to 50 | ≤ 0.1 |  |
| CC(C)(C)O[C@H]1C[C@@H](OC(=O)NC2CN(c3cc(F)c(C4CCC(=O)NC4=O)c(F)c3)C2)C1 (some centres unmarked) [Compound 46, (1s, 3s)-3-(tert-butoxy)cyclobutyl (1-(4-(2,6-dioxopiperidin-3-yl)-3,5-difluorophenyl)azetidin-3-yl)carbamate] | 50 to 80 | ≤ 0.1 |  |
| CC(C)(C)[Si](C)(C)O[C@H]1C[C@H](OC(=O)NC2CN(c3cc(F)c(C4CCC(=O)NC4=O)c(F)c3)C2)C1 (some centres unmarked) [Compound 47, (1r, 3r)-3-((tert-butyldimethylsilyl)oxy)cyclobutyl (1-(4-(2,6-dioxopiperidin-3-yl)-3,5-difluorophenyl)azetidin-3-yl)carbamate] |  | ≤ 0.1 | > 80 |
| CC(C)(C)[Si](C)(C)O[C@H]1C[C@@H](OC(=O)NC2CN(c3cc(F)c(C4CCC(=O)NC4=O)c(F)c3)C2)C1 (some centres unmarked) [Compound 48] |  | ≤ 0.1 | > 80 |
| CC(C)(C)[Si](C)(C)O[C@H]1C[C@@H](COC(=O)NC2CN(c3cc(F)c(C4CCC(=O)NC4=O)c(F)c3)C2)C1 (some centres unmarked) [Compound 49, ((1s, 3s)-3-((tert-butyldimethylsilyl)oxy)cyclobutyl)methyl (1-(4-(2,6-dioxopiperidin-3-yl)-3,5-difluorophenyl)azetidin-3-yl)carbamate] | > 80 | 0.1 to 1 |  |
| CC(C)(C)[Si](C)(C)O[C@H]1C[C@H](COC(=O)NC2CN(c3cc(F)c(C4CCC(=O)NC4=O)c(F)c3)C2)C1 (some centres unmarked) [Compound 50, ((1r, 3r)-3-((tert-butyldimethylsilyl)oxy)cyclobutyl)methyl (1-(4-(2,6-dioxopiperidin-3-yl)-3,5-difluorophenyl)azetidin-3-yl)carbamate] | > 80 | 0.1 to 1 |  |

Continued, in another order:

| Dmax (CDK2; HEK293, HEK293 clonal line) [%] | Ki (CRBN-DDB1) [µM] | SMILES | Dmax (CDK2; HEK293 clonal line) [%] |
| --- | --- | --- | --- |
| > 80 | ≤ 0.1 | O=C1CCC(c2c(F)cc(N3CC(NC(=O)OCC4CCCCC4)C3)cc2F)C(=O)N1 (centres unmarked) [Compound 51, cyclohexylmethyl (1-(4-(2,6-dioxopiperidin-3-yl)-3,5-difluorophenyl)azetidin-3-yl)carbamate] |  |
| > 80 | ≤ 0.1 | C[C@H]1CC[C@H](COC(=O)NC2CN(c3cc(F)c(C4CCC(=O)NC4=O)c(F)c3)C2)CC1 (some centres unmarked) [Compound 52, ((1r, 4r)-4-methylcyclohexyl)methyl (1-(4-(2,6-dioxopiperidin-3-yl)-3,5-difluorophenyl)azetidin-3-yl)carbamate] |  |
| > 80 | ≤ 0.1 | CC1(C)CCC(COC(=O)NC2CN(c3cc(F)c(C4CCC(=O)NC4=O)c(F)c3)C2)CC1 (centres unmarked) [Compound 53, (4,4-dimethylcyclohexyl)methyl (1-(4-(2,6-dioxopiperidin-3-yl)-3,5-difluorophenyl)azetidin-3-yl)carbamate] |  |
| 50 to 80 | ≤ 0.1 | O=C1CC[C@H](c2c(F)cc(N3CC[C@@H](NC(=O)OCC4CC5(CCC5)C4)C3=O)cc2F)C(=O)N1 [Compound 54, spiro[3.3]heptan-2-ylmethyl ((R)-1-(4-((R)-2,6-dioxopiperidin-3-yl)-3,5-difluorophenyl)-2-oxopyrrolidin-3-yl)carbamate] |  |
| 50 to 80 | 0.1 to 1 | O=C1CC[C@@H](c2c(F)cc(N3CC[C@@H](NC(=O)OCC4CC5(CCC5)C4)C3=O)cc2F)C(=O)N1 [Compound 55, spiro[3.3]heptan-2-ylmethyl ((R)-1-(4-((S)-2,6-dioxopiperidin-3-yl)-3,5-difluorophenyl)-2-oxopyrrolidin-3-yl)carbamate] |  |
| > 80 | ≤ 0.1 | CC1(NC(=O)OCC2CC3(CCC3)C2)CN(c2cc(F)c(C3CCC(=O)NC3=O)c(F)c2)C1 (centres unmarked) [Compound 56, spiro[3.3]heptan-2-ylmethyl (1-(4-(2,6-dioxopiperidin-3-yl)-3,5-difluorophenyl)-3-methylazetidin-3-yl)carbamate] |  |
| 50 to 80 | 0.1 to 1 | O=C1CCC(c2c(F)cc(N3C[C@@H](NC(=O)OCC4CC5(CCC5)C4)CC3=O)cc2F)C(=O)N1 (stereo partly drawn) [Compound 57, spiro[3.3]heptan-2-ylmethyl ((3S)-1-(4-(2,6-dioxopiperidin-3-yl)-3,5-difluorophenyl)-5-oxopyrrolidin-3-yl)carbamate] |  |
| 50 to 80 | ≤ 0.1 | O=C1CCC(c2c(F)cc(N3C[C@H](NC(=O)OCC4CC5(CCC5)C4)CC3=O)cc2F)C(=O)N1 (stereo partly drawn) [Compound 58, spiro[3.3]heptan-2-ylmethyl ((3R)-1-(4-(2,6-dioxopiperidin-3-yl)-3,5-difluorophenyl)-5-oxopyrrolidin-3-yl)carbamate] |  |
| > 80 | ≤ 0.1 | O=C1CCC(c2ccc(N3CC(NC(=O)OCC4CC5(CCC5)C4)C3)cc2F)C(=O)N1 (centres unmarked) [Compound 59, spiro[3.3]heptan-2-ylmethyl (1-(4-(2,6-dioxopiperidin-3-yl)-3-fluorophenyl)azetidin-3-yl)carbamate] |  |
| > 80 | ≤ 0.1 | O=C1CCC(c2ccc(N3CC(NC(=O)OCC4CC5(CCC5)C4)C3)cc2Cl)C(=O)N1 (centres unmarked) [Compound 60, spiro[3.3]heptan-2-ylmethyl (1-(3-chloro-4-(2,6-dioxopiperidin-3-yl)phenyl)azetidin-3-yl)carbamate] |  |
| > 80 | 0.1 to 1 | O=C1CCC(c2c(F)cc(N3CC[C@H](NC(=O)OCC4CC5(CCC5)C4)C3)cc2F)C(=O)N1 (stereo partly drawn) [Compound 61, spiro[3.3]heptan-2-ylmethyl ((3S)-1-(4-(2,6-dioxopiperidin-3-yl)-3,5-difluorophenyl)pyrrolidin-3-yl)carbamate] |  |
| > 80 | 0.1 to 1 | O=C1CCC(c2ccc(N3CC(NC(=O)OCC4CC5(CCC5)C4)C3)cc2)C(=O)N1 (centres unmarked) [Compound 62, spiro[3.3]heptan-2-ylmethyl (1-(4-(2,6-dioxopiperidin-3-yl)phenyl)azetidin-3-yl)carbamate] |  |
| > 80 | 0.1 to 1 | COc1c(N2CC(NC(=O)OCC3CC4(CCC4)C3)C2)ccc(C2CCC(=O)NC2=O)c1Cl (centres unmarked) [Compound 63, spiro[3.3]heptan-2-ylmethyl (1-(3-chloro-4-(2,6-dioxopiperidin-3-yl)-2-methoxyphenyl)azetidin-3-yl)carbamate] |  |
